Key:
Female BALB/c mice = experiment: Example 5: IM vaccination with gp120 BaL in oleic acid formulations, serum gp120-specific IgG1 ELISA at 2WP2; format: in vivo; conditions: 40% oleic acid, compared to oleic acid plus EGCG, VA plus EGCG alone or no adjuvant, FIG. 11
Procedure: Groups of 4 female BALB/C mice were vaccinated intra-muscularly with various vaccine formulations containing 2.5 ug gp120 from the BaL Glade of HIV-1 twice at a 3 weeks interval. Serum gp120-specific IgG1 titers were measured by ELISA at 2 weeks post second vaccination (2WP2). The mice were vaccinated with combinations of retinyl palmitate (RP; 54 IU), epigallo catechin gallate (EGCG; 120 ug) in either 40% oleic acid, each alone or in various combinations.

BALB/c mice = experiment: cytokine responses in iliac lymph nodes after mucosal (IN/SL) and systemic (IM) vaccinations; format: in vivo; conditions: two mucosal (IN/SL) and one systemic (IM) boosting vaccinations vs. three IM vaccinations with Imject Alum; FIG. 4
mice = experiment: serum TNFα and IL-6 at 6 hours following a single IM injection; format: in vivo; conditions: 6 hours after single IM vaccination; vs. NIDS or no adjuvant; FIG. 8
Procedure: To find further in vivo support of the above air pouch model results, in vivo production of early pro-inflammatory cytokines TNFα and IL-6 were determined in sera of mice at 6 hours following a single IM injection of NIDS vs. poly (I:C) vs. no adjuvant.

murine air pouch model = murine air pouch model of local cytotoxicity, multiplex Luminex of pouch fluid; format: in vivo, mice; conditions: compared to injection of NIDS, FIG. 7
Procedure: A local cytotoxicity test was performed by employing the murine air pouch model.

[1] = air pouch supernatant 6 hours after injection

Compound | serum IgG1 antigen-specific responses (Female BALB/c mice) | local TH1 and TH2 cytokine responses in iliac lymph nodes (BALB/c mice) | serum IL-6 (mice) | serum TNFα (mice) | TNFα (murine air pouch model; air pouch supernatant 6 hours after injection of seven mouse vaccine dose equivalents) | G-CSF (murine air pouch model; [1]) | IL-6 (murine air pouch model; [1]) | IP-10 (murine air pouch model; [1]) | KC (murine air pouch model; [1]) | MCP-1 (murine air pouch model; [1]) | MIP1-a (murine air pouch model; [1]) | MIP-1b (murine air pouch model; [1]) | MIP-2 (murine air pouch model; [1]) | RANTES (murine air pouch model; [1])
CCCCCCCC/C=C\CCCCCCCC(=O)O [oleic acid] | enhanced |  |  |  |  |  |  |  |  |  |  |  |  | 
poly (I:C) |  | enhanced | significantly enhanced | significantly enhanced | Significantly higher | Significantly higher | Significantly higher | Significantly higher | Significantly higher | Significantly higher | Significantly higher | Significantly higher | Significantly higher | Significantly higher
